Laboratory results from patent US4973545A, “Photographic couplers with aryloxysilyl groups” (Eastman Kodak Company, priority 1988, dated 1990).

Tests used:
Assay type in all cases: physicochemical
[1] = Solubility of the coupler in di-n-butylphthalate coupler solvent (dye dispersibility)
Description: (§1) In the following Examples, Couplers 1 to 6 are as defined above. Comparison Couplers C-1 to C-6 have the same structures as Couplers 1 to 6, respectively, except that the silyl group is replaced by a hydrogen atom. For example, Coupler C-1 has the structure depicted by Formula I wherein Q=C1 and R=H.

[2] = Spectrophotometric testing: dye hue (λmax and half-bandwidth); details: dye image, density about 1.0, C41 processing
Experimental: (§2) Each coupler of the invention and each comparison coupler was dissolved in half its weight of tricresylphosphate as the coupler solvent using 2-(2-butoxyethoxy)ethyl acetate as the auxiliary solvent. The coupler was dispersed in a gelatin solution and the auxiliary solvent was removed by evaporation under reduced pressure.
(§3) Experimental photographic coatings were prepared by coating a cellulose acetate film support with a photosensitive layer comprising a dispersion of the coupler as formulated above coated at a laydown of 1.04 mmol m^-2, a silver chlorobromide emulsion at 1.61 gm^-2 Ag, gelatin at 2.42 gm^-2 and a hardener at 0.06 gm^-2. An overcoat containing gelatin at 1.5 gm^-2 was applied to the photosensitive layer.
(§4) The dried experimental coating was then slit and chopped into test strips.
(§5) The test strips were exposed through a neutral density step-wedge test object. The strips were then processed through a standard C41 processing cycle as described in the British Journal of Photographic Annual 1977, pages 204-5. The processed strips were then dried to give stepped dye images.
(§6) Test strips were exposed as above through a step-wedge test object and appropriate filters to give to give an optical density of about 1.0. The strips were processed using the standard conditions described above and samples cut from the dye image step with density closest to 1.0. Visible absorption spectra (normalized to 1.0 density) were obtained using a spectrophotometer.
Dye hues are expressed in terms of the wavelength corresponding to the maximum absorption peak (λmax) and the half-bandwidth (HBW) calculated from the spectrophotometric curves.
as §1

[3] = Dye stability testing: dark keeping, dark/wet fade; details: dye image from coupler, dark oven, 60° C., 70% relative humidity, fractional density change at absorption maximum
Experimental: as §2, §3, §4, §5, §6
Dye sample patches having a density of about 1.0 were prepared as for spectrophotometric testing and their absorption spectram measured as above.
[…] The spectrophotometric curves of the samples were then remeasured and the degree of fade quoted as the fractional decrease in density at the absorption maximum relative to the initial density prior to fading. The results are presented as dark/wet fade data.
as §1

SMILES | Solubility ([1]; 80 mg in 0.05 ml di-n-butylphthalate, 1 min on steam bath at 80° C.) | Solubility ([1]; 80 mg in 0.1 ml di-n-butylphthalate, 1 min on steam bath at 80° C.) | Solubility relative to Coupler C-1 ([1]; compared with Coupler C-1 under these conditions (di-n-butylphthalate, steam bath 80° C.)) | HBW (half-bandwidth) of dye absorption [2] [nm] | λmax of dye [2] | Dark/Wet Fade, 1 wk [3] | Dark/Wet Fade, 3 wk [3] | Dark/Wet Fade [3] | Solubility ([1]; 20 mg in 1 ml di-n-butylphthalate, 2 min on steam bath at 80° C.) | Solubility ([1]; 40 mg in 1 ml di-n-butylphthalate, 6 min on steam bath at 80° C.) | Solubility ([1]; 100 mg in 1 ml di-n-butylphthalate, 6 min on steam bath at 80° C.)
CCCCCCCCCCC(Oc1ccc(S(=O)(=O)c2ccc(O[Si](C)(C)C(C)(C)C)cc2)cc1)C(=O)Nc1ccc(CCCc2n[nH]c3c(Cl)c(C)nn23)cc1 (stereo not drawn) [Coupler 1] | soluble | soluble | greater than ten times more soluble | 86.5 | 548.5 | +0.02 | 0.00 | +0.01 | – | – | –
CCCCCCCCCCCCC(Oc1ccc(O[Si](C)(C)C(C)(C)C)c(C(C)(C)C)c1)C(=O)Nc1ccc(Cl)c(NC2=NN(c3c(Cl)cc(Cl)cc3Cl)C(=O)C2)c1 (stereo not drawn) [Coupler 3] | – | – | – | 78.5 | 539.5 | -0.02 | -0.09 | -0.04 | – | – | –
CCCCCCCCCCC(Oc1ccc(S(=O)(=O)c2ccc(O[Si](C)(C)C(C)(C)C)cc2)cc1)C(=O)Nc1ccc(Cl)c(NC2=NN(c3c(Cl)cc(Cl)cc3Cl)C(=O)C2)c1 (stereo not drawn) [Coupler 4] | – | – | – | 84.5 | 541.5 | – | – | – | – | – | –
CCCCCCCCCCC(Oc1ccc(S(=O)(=O)c2ccc(O)cc2)cc1)C(=O)Nc1ccc(CCCc2n[nH]c3c(Cl)c(C)nn23)cc1 (stereo not drawn) [Coupler C-1] | – | – | – | 89.5 | 553 | +0.07 | +0.06 | +0.05 | soluble | soluble | insoluble
CCCCCCCCCCCCC(Oc1ccc(O)c(C(C)(C)C)c1)C(=O)Nc1ccc(Cl)c(NC2=NN(c3c(Cl)cc(Cl)cc3Cl)C(=O)C2)c1 (stereo not drawn) [Coupler C-3] | – | – | – | 82 | 544.5 | -0.04 | -0.09 | -0.08 | – | – | –
CCCCCCCCCCC(Oc1ccc(S(=O)(=O)c2ccc(O)cc2)cc1)C(=O)Nc1ccc(Cl)c(NC2=NN(c3c(Cl)cc(Cl)cc3Cl)C(=O)C2)c1 (stereo not drawn) [Coupler C-4] | – | – | – | 92 | 545.5 | – | – | – | – | – | –
